The subject of the assay is B/C.N cells. In words: CML assay: peptide sensitization of B/C.N cells to lysis by tumor-specific CTL. Format: cell-based, mouse. Particulars: for ability to sensitize B/C.N cells to lysis by tumor-specific CTL: 51Cr release, 4 hours.

The text below walks through data of patent US7910551B2, “Gene differentially expressed in breast and bladder cancer and encoded polypeptides” (University of Rochester, priority 2000, dated 2011).

In the case of “L345-54 (I54): ribosomal protein L3 peptide, amino acids 45-54 with Ile 54 (AFLGYKAGMI)”, the “ability to sensitize B/C.N cells to lysis by tumor-specific CTL” value (“ability to sensitize B/C.N cells” for short) was “did not”.
With “L348-56 (I54): ribosomal protein L3 peptide, amino acids 48-56 with Ile 54; target epitope of tumor-specific CTL (GYKAGMIHI)”, the “ability to sensitize B/C.N cells” value is given as “sensitized B/C.N to lysis”. For the same substance, the “peptide concentration sufficient to sensitize targets to lysis by CTL” value (B/C.N targets) came to 10 nM.
As to “L348-56 (T54): wild type ribosomal protein L3 peptide 48-56 with Thr 54 (GYKAGMTHI) [reference compound]”, the “ability to sensitize B/C.N cells” value is reported as “did not”. Moreover, for the setting “B/C.N targets”, the “peptide concentration that did not sensitize targets to lysis by CTL” value is greater than 100 mM.
